This passage reports IC50, MCC and MIC results from ChEMBL document CHEMBL3124802, “Scrutinizing the scaffolds of marine biosynthetics from different source organisms: Gram-negative cultured bacterial products enter center stage” (J Nat Prod, 2014).

Converted amounts (≈) assume the structure as drawn. Where a SMILES comes first, the peptide text is derived from it. Bridges are numbered along the chain shown (N, C = ends). The star is where a group is joined. X1 = O=C(/C=C/C=C/C=C/C=C/c1ccc(O)c(Br)c1)*

The nature of series [1]: Antioxidant activity assessed as singlet oxygen quenching activity. Format: functional.
A short description of series [2]: Cytotoxicity against sea urchin eggs. More on the design: species or system Egg. The conditions noted are these: strongylocentrotus intermedius, read-out: MIC.
A further series deals with Candida albicans. Kind of series: Antimicrobial activity against Candida albicans. Format: functional.

By IC50 is commonly meant the concentration at which inhibition is half-maximal. With `CC(/C=C/C=C(C)/C=C/C=C(\C)C(=O)O)=C\C=C\C=C(C)\C=C\C=C(C)\C=C\C=C(/C)C(=O)O[C@@H]1OC[C@@H](O)[C@H](O)[C@H]1OC(=O)CCCCCCCCCCC(C)C`, the IC50 in series [1] is 5.1 µM.

Turning to `CC[C@@H](C)[C@@H]1NC(=O)[C@H](CC(N)=O)NC(=O)[C@H](CC(N)=O)NC(=O)[C@H](C(C)C)NC(=O)[C@@H](NC(=O)/C=C/C=C/C=C/C=C/c2ccc(O)c(Br)c2)[C@@H](C)OC1=O`, the MCC in series [2] is 40 µg/mL.

Regarding `CC[C@@H](C)[C@@H]1NC(=O)[C@H](CC(N)=O)NC(=O)[C@H](CC(N)=O)NC(=O)[C@H](C(C)C)NC(=O)[C@@H](NC(=O)CCCCCCCCc2ccc(O)cc2)[C@@H](C)OC1=O`, the MCC in series [2] was 40 µg/mL.

As to `CC[C@@H](C)[C@@H]1NC(=O)[C@H](CC(N)=O)NC(=O)[C@H](CC(N)=O)NC(=O)[C@H](C(C)C)NC(=O)[C@@H](NC(=O)CCCCCCCCc2ccc(O)c(Br)c2)[C@@H](C)OC1=O`, in series [2], the MCC came out at 40 µg/mL.

For the molecule `CC[C@@H](C)[C@@H]1NC(=O)[C@H](CC(N)=O)NC(=O)[C@H](CC(N)=O)NC(=O)[C@H](C(C)C)NC(=O)[C@@H](NC(=O)/C=C/CCCCCCc2ccc(O)c(Br)c2)[C@@H](C)OC1=O`, in series [2], the MCC worked out at 40 µg/mL.

`CC(C)C[C@@H]1NC(=O)[C@H](CC(N)=O)NC(=O)[C@H](CC(N)=O)NC(=O)[C@H](C(C)C)NC(=O)[C@@H](NC(=O)/C=C/C=C/C=C/C=C/c2ccc(O)c(Br)c2)[C@@H](C)OC1=O` (X1-TVNNL; ester 1-C): in series [2], the MCC stood at 40 µg/mL.

One may read the MIC as the lowest concentration that inhibits growth of the organism. High values mean a less susceptible organism, low ones a more susceptible organism. As for `C/C1=C\[C@H](C)C[C@H](C)OC(=O)C[C@H](c2ccc(O)cc2)NC(=O)[C@@H](Cc2c(Br)[nH]c3ccccc23)N(C)C(=O)[C@H](C)NC(=O)[C@@H](C)C1` [JASPAMIDE], the MIC in the series with Candida albicans came out at 25 µg/mL (≈ 35.2 µM).
